Reference: article PMC7153038, “Pharmacologic inhibition of RGD‐binding integrins ameliorates fibrosis and improves function following kidney injury” (Physiological Reports, 2020)
“And” between values parts separate entries of the source, which are not always exact repeats. Equal values may be shown once.

Legend:
[1] = plasma compound concentration by LC/MS/MS; assay type: in vivo, mouse; conditions: 100 mg/kg per day s.c. by Alzet minipump
Protocol: (§1) Alzet osmotic minipumps (Cupertino, CA) were implanted subcutaneously in 8‐ to 10‐week‐old wild‐type male ICR outbred mice (Envigo) one day prior to induction of kidney injury to deliver vehicle (DMSO/H2O 1:1) or CWHM‐12 at a dose of 100 mg/kg per day. A single 5 mg/kg dose of aristolochic acid I sodium salt (Sigma‐Aldrich, A9451) in PBS was administered intraperitoneally to induce kidney injury, and mice were monitored daily for 27 days thereafter. Control (uninjured) mice were injected with an equal volume of PBS. Blood was obtained by maxillary vein puncture on days 0, 5 (peak injury), and 28 (study endpoint). For testing CWHM‐680, oral gavage (100 mg/kg per day) was started one day prior to injection of aristolochic acid I sodium salt and continued once daily until the study endpoint. Blood was obtained at days 0, 7, and 23 (study endpoint). […] Serum creatinine was measured by liquid chromatography–mass spectrometry (LC–MS/MS) at the University of Alabama O’Brien Center Bioanalytical Core. CWHM‐12 and CWHM‐680 concentrations were measured in plasma samples by liquid chromatography–tandem mass spectrometry (LC/MS/MS) using compound spiked into control plasma as a standard. All experiments were performed under protocols approved by the Institutional Animal Care and Use Committee at St. Louis University.

[2] = tested on: aristolochic acid-induced kidney injury in ICR mice; experiment: aristolochic acid kidney injury model, serum creatinine; assay type: in vivo, mouse; conditions: AA-injured mice, 100 mg/kg/day s.c. minipump; vehicle 0.32
Protocol: as §1

kidney gene expression = experiment: aristolochic acid kidney injury model, kidney RNA sequencing; assay type: in vivo, mouse; conditions: for Fold change of Pdgfra by RNA‐seq, AA + CWHM-12: vehicle 5.02; for Fold change of Pdgfrb by RNA‐seq, AA + CWHM-12: vehicle 6.79; for Fold change of Foxd1 by RNA‐seq, AA + CWHM-12: vehicle 9.55; for Fold change of Gli1 by RNA‐seq, AA + CWHM-12: vehicle 20.44; for Fold change of Crlf1 by RNA‐seq, AA + CWHM-12: vehicle 37.57
Protocol: as §1
Total RNA was isolated from four kidneys from each of the three study groups using the RNeasy Plus Mini Kit (Qiagen). The groups were as follows: (a) aristolochic acid plus vehicle, (b) aristolochic acid plus CWHM‐12, and (c) PBS plus vehicle. After ribosomal depletion, we constructed barcoded sequencing libraries using the Ion Total RNA‐seq v2 kits (Life Technologies) according to the manufacturer's instructions. Sequencing was performed on an Ion Torrent Proton with mean read lengths of 85–110 nucleotides, and reads were aligned to the mouse mm10 genome using the TMAP aligner map4 algorithm. Soft clipping at both 5′ and 3′ ends of the reads was permitted during alignment to accommodate spliced reads, with a minimum seed length of 20 nucleotides. Genome‐wide strand‐specific nucleotide coverages were calculated from the aligned bam files for each sample using the “genomecoveragebed” program in BEDTools (Quinlan & Hall, 2010), and the nucleotide coverage for all nonredundant exons for each gene was summed using custom R scripts (http://www.Rproject.org). Normalization factors were calculated by averaging the total exon coverage for all replicates and dividing this average by the total exon coverage for each individual sample. The total coverage for each gene in each replicate was then multiplied by these factors after adding an offset of 1 to each gene to preclude division by 0 in subsequent calculations. The averages and p values of the coverage values for all genes in the individual groups were calculated using Microsoft Excel, using a two‐tailed t‐test. The expression values for each gene are the normalized strand‐specific total nucleotide coverage for each gene. The complete data set can be accessed at https://figshare.com/s/54c7f78b4523873e9b00.

integrin α5β1 = molecular target: T1, integrin α5β1 (Homo sapiens, UniProt P05556+P08648); experiment: integrin α5β1-mediated attachment of K562 cells to human plasma fibronectin; assay type: cell-based; conditions: mean and SD, at least 3 independent assays, read-out: IC50, inhibition of α5β1-mediated cell attachment
T1 construct: K562 cells, which naturally express this integrin; endogenous in cells; host or cells: K562

[3] = AA-injured, 100 mg/kg/day s.c. minipump
[4] = AA-injured, 100 mg/kg/day s.c. minipump, relative to uninjured, 100 mg/kg/day
[5] = AA-injured, 100 mg/kg/day s.c. minipump, relative to uninjured, listed as CWHM−12, 100 mg/kg/day

T1 sequence (P08648 42-894 limits assumed): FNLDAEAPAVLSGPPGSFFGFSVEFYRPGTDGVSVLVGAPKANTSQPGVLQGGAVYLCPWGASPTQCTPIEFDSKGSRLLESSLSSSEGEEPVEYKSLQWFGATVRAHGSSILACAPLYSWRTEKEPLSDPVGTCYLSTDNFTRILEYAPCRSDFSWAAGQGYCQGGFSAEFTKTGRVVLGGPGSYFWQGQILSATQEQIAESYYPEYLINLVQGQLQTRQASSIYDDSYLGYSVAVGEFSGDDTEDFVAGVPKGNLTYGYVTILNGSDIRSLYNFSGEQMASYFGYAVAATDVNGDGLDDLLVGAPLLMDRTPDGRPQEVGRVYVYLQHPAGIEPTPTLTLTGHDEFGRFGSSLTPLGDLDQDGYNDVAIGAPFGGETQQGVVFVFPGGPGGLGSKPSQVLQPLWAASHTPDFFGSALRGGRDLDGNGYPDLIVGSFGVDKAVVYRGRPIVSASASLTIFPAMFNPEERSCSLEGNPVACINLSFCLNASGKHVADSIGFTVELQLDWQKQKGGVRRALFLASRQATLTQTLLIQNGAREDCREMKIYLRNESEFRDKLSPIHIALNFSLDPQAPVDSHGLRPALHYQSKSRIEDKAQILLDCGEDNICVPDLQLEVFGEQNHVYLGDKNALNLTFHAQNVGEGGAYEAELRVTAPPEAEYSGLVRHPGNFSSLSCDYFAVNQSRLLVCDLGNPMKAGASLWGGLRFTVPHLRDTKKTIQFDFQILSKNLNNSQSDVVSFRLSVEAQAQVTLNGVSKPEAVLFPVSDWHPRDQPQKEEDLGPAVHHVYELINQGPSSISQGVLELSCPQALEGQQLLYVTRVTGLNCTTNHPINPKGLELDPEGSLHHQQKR
T1 sequence (P08648 895-1049 partner limits assumed): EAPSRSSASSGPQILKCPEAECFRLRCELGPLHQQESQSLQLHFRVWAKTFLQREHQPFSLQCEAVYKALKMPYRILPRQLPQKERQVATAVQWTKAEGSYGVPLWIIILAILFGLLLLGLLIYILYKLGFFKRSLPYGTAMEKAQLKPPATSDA
T1 sequence (P05556 21-798): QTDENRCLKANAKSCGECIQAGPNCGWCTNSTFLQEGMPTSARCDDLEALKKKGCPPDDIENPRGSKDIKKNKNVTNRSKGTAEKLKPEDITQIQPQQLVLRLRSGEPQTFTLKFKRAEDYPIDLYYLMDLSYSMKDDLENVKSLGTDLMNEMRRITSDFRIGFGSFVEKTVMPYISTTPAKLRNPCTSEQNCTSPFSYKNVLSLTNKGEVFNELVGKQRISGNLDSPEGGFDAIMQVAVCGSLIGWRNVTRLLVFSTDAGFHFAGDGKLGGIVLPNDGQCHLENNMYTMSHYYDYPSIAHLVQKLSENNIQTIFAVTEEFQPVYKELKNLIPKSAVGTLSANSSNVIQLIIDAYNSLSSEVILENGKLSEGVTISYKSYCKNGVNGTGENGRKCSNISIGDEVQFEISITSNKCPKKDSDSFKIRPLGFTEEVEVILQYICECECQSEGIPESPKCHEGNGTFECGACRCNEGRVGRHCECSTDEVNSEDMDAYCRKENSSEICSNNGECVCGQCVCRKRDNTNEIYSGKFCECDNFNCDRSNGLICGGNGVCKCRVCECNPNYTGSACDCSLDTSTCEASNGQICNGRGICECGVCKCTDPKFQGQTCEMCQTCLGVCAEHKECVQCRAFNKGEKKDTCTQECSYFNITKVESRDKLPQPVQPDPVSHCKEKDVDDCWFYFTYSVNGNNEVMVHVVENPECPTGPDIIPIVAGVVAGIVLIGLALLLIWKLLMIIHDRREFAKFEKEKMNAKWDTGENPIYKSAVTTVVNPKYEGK

## CC(C)(C)c1cc(Br)cc([C@H](CC(=O)O)NC(=O)CNC(=O)c2cc(O)cc(NC3=NCC(O)CN3)c2)c1 (stereo partly shown) [CWHM‐12]
[1]
  mean steady plasma drug concentration: approximately 5 µg/ml
[2]
  serum creatinine at day 27: 0.15 mg/dL
Kidney gene expression; [3]
  Acta2 RNA‐seq ratio AA + CWHM-12/AA + Vehicle: 0.8473
  Aldh1a2 RNA‐seq ratio AA + CWHM-12/AA + Vehicle: 0.6492
  Col1a1 RNA‐seq ratio AA + CWHM-12/AA + Vehicle: 0.2480
  Col3a1 RNA‐seq ratio AA + CWHM-12/AA + Vehicle: 0.3560
  Col5a3 RNA‐seq ratio AA + CWHM-12/AA + Vehicle: 0.5587
  Crlf1 RNA‐seq ratio AA + CWHM-12/AA + Vehicle: 0.1032
  Ctgf RNA‐seq ratio AA + CWHM-12/AA + Vehicle: 0.5510
  Egf expression increase in injured animals, RNA-seq: twofold
  Fbln2 RNA‐seq ratio AA + CWHM-12/AA + Vehicle: 0.5262
  Fn1 RNA‐seq ratio AA + CWHM-12/AA + Vehicle: 0.5243
  Foxd1 RNA‐seq ratio AA + CWHM-12/AA + Vehicle: 0.3427
  Gda RNA‐seq ratio AA + CWHM-12/AA + Vehicle: 0.6302
  Gli1 RNA‐seq ratio AA + CWHM-12/AA + Vehicle: 0.4486
  Gli2 RNA‐seq ratio AA + CWHM-12/AA + Vehicle: 0.8986
  Gli3 RNA‐seq ratio AA + CWHM-12/AA + Vehicle: 0.6039
  Mmp2 RNA‐seq ratio AA + CWHM-12/AA + Vehicle: 0.4013
  NGAL (Lcn2) expression decrease vs vehicle-treated injured mice, RNA-seq: 50%
  Nes RNA‐seq ratio AA + CWHM-12/AA + Vehicle: 0.4461
  Pdgfra RNA‐seq ratio AA + CWHM-12/AA + Vehicle: 0.7298
  Pdgfrb RNA‐seq ratio AA + CWHM-12/AA + Vehicle: 0.4393
  Rgs16 RNA‐seq ratio AA + CWHM-12/AA + Vehicle: 0.4692
  Shroom3 RNA‐seq ratio AA + CWHM-12/AA + Vehicle: 0.5633
  Tgfb1 RNA‐seq ratio AA + CWHM-12/AA + Vehicle: 0.5715
  Tgfb2 RNA‐seq ratio AA + CWHM-12/AA + Vehicle: 0.8306
  Tgfb3 RNA‐seq ratio AA + CWHM-12/AA + Vehicle: 0.5937
  Thbs2 RNA‐seq ratio AA + CWHM-12/AA + Vehicle: 0.5603
  Thbs4 RNA‐seq ratio AA + CWHM-12/AA + Vehicle: 0.4558
  reduction of Myc expression, RNA-seq: 35%
  reduction of upregulation of eight keratin genes (Krt 7, 8, 15, 18–20, 23, 80), RNA-seq: 15%–50%
Kidney gene expression; AA-injured, 100 mg/kg/day s.c. minipump, induction 45-fold with vehicle
  decrease of Sox9 induction, RNA-seq: 57%
Kidney gene expression; AA-injured, 100 mg/kg/day s.c. minipump, relative to uninjured, vehicle 0.87
  Fold change of Gli2 by RNA‐seq, AA + CWHM-12: 0.78 fold
Kidney gene expression; AA-injured, 100 mg/kg/day s.c. minipump, relative to uninjured, vehicle 3.7
  Fold change of Acta2 by RNA‐seq, AA + CWHM-12: 3.2 fold
Kidney gene expression; AA-injured, 100 mg/kg/day s.c. minipump, relative to uninjured, vehicle 3.9
  Fold change of Shroom3 by RNA‐seq, AA + CWHM-12: 2.2 fold
Kidney gene expression; AA-injured, 100 mg/kg/day s.c. minipump, relative to uninjured, vehicle 4.9
  Fold change of Tgfb2 by RNA‐seq, AA + CWHM-12: 4.1 fold
Kidney gene expression; [4]
  Fold change of Pdgfra by RNA‐seq, AA + CWHM-12: 3.7 fold
  Fold change of Pdgfrb by RNA‐seq, AA + CWHM-12: 3.0 fold
  Fold change of Foxd1 by RNA‐seq, AA + CWHM-12: 3.3 fold
  Fold change of Gli1 by RNA‐seq, AA + CWHM-12: 9.2 fold
  Fold change of Crlf1 by RNA‐seq, AA + CWHM-12: 3.9 fold
Kidney gene expression; [5]
  Fold change of Pdgfra by RNA‐seq, AA + CWHM-12: 3.66 fold
  Fold change of Pdgfrb by RNA‐seq, AA + CWHM-12: 2.98 fold
  Fold change of Foxd1 by RNA‐seq, AA + CWHM-12: 3.27 fold
  Fold change of Gli1 by RNA‐seq, AA + CWHM-12: 9.17 fold
  Fold change of Crlf1 by RNA‐seq, AA + CWHM-12: 3.88 fold
Kidney gene expression; AA-injured, 100 mg/kg/day s.c. minipump, relative to uninjured, vehicle 5.78
  Fold change of Fbln2 by RNA‐seq, AA + CWHM-12: 3.04 fold
Kidney gene expression; AA-injured, 100 mg/kg/day s.c. minipump, relative to uninjured, vehicle 5.81
  Fold change of Col5a3 by RNA‐seq, AA + CWHM-12: 3.25 fold
Kidney gene expression; AA-injured, 100 mg/kg/day s.c. minipump, relative to uninjured, vehicle 6.4
  Fold change of Ctgf by RNA‐seq, AA + CWHM-12: 3.5 fold
Kidney gene expression; AA-injured, 100 mg/kg/day s.c. minipump, relative to uninjured, vehicle 7.4
  Fold change of Tgfb1 by RNA‐seq, AA + CWHM-12: 4.2 fold
Kidney gene expression; AA-injured, 100 mg/kg/day s.c. minipump, relative to uninjured, vehicle 7.78
  Fold change of Thbs2 by RNA‐seq, AA + CWHM-12: 4.36 fold
Kidney gene expression; AA-injured, 100 mg/kg/day s.c. minipump, relative to uninjured, vehicle 8.17
  Fold change of Gda by RNA‐seq, AA + CWHM-12: 5.15 fold
Kidney gene expression; AA-injured, 100 mg/kg/day s.c. minipump, relative to uninjured, vehicle 8.3
  Fold change of Tgfb3 by RNA‐seq, AA + CWHM-12: 4.9 fold
Kidney gene expression; AA-injured, 100 mg/kg/day s.c. minipump, relative to uninjured, vehicle 8.72
  Fold change of Thbs4 by RNA‐seq, AA + CWHM-12: 3.97 fold
Kidney gene expression; AA-injured, 100 mg/kg/day s.c. minipump, relative to uninjured, vehicle 8.77
  Fold change of Nes by RNA‐seq, AA + CWHM-12: 3.91 fold
Kidney gene expression; AA-injured, 100 mg/kg/day s.c. minipump, relative to uninjured, vehicle 12.6
  Fold change of Fn1 by RNA‐seq, AA + CWHM-12: 6.6 fold
Kidney gene expression; AA-injured, 100 mg/kg/day s.c. minipump, relative to uninjured, vehicle 24.6
  Fold change of Mmp2 by RNA‐seq, AA + CWHM-12: 9.9 fold
Kidney gene expression; AA-injured, 100 mg/kg/day s.c. minipump, relative to uninjured, vehicle 24.87
  Fold change of Gli3 by RNA‐seq, AA + CWHM-12: 15.02 fold
Kidney gene expression; AA-injured, 100 mg/kg/day s.c. minipump, relative to uninjured, vehicle 28.0
  Fold change of Col3a1 by RNA‐seq, AA + CWHM-12: 10.0 fold
Kidney gene expression; AA-injured, 100 mg/kg/day s.c. minipump, relative to uninjured, vehicle 32.44
  Fold change of Aldh1a2 by RNA‐seq, AA + CWHM-12: 21.06 fold
Kidney gene expression; AA-injured, 100 mg/kg/day s.c. minipump, relative to uninjured, vehicle 42.1
  Fold change of Col1a1 by RNA‐seq, AA + CWHM-12: 10.4 fold
Kidney gene expression; AA-injured, 100 mg/kg/day s.c. minipump, relative to uninjured, vehicle 55.80
  Fold change of Rgs16 by RNA‐seq, AA + CWHM-12: 26.19 fold
Kidney gene expression; AA-injured, 100 mg/kg/day s.c. minipump, vehicle 12-fold
  Cdk1 expression level, fold higher, RNA-seq: 1.9 fold
Kidney gene expression; AA-injured, 100 mg/kg/day s.c. minipump, vehicle 23-fold
  Ccnb1 expression level, fold higher, RNA-seq: 1.4 fold
Kidney gene expression; AA-injured, group average
  0610005C13Rik RNA-seq normalized coverage, AA CWHM12.AVE: 114105
  0610007N19Rik RNA-seq normalized coverage, AA CWHM12.AVE: 54308
  0610007P14Rik RNA-seq normalized coverage, AA CWHM12.AVE: 56128
  0610008F07Rik RNA-seq normalized coverage, AA CWHM12.AVE: 5309
  0610009B14Rik RNA-seq normalized coverage, AA CWHM12.AVE: 1314
Kidney gene expression; AA-injured, replicates 1-3
  0610005C13Rik RNA-seq normalized coverage, AA CWHM12 individual replicates: 95741 and 94900 and 151673
  0610007N19Rik RNA-seq normalized coverage, AA CWHM12 individual replicates: 42985 and 46254 and 73685
  0610007P14Rik RNA-seq normalized coverage, AA CWHM12 individual replicates: 42349 and 51087 and 74947
  0610008F07Rik RNA-seq normalized coverage, AA CWHM12 individual replicates: 4229 and 2946 and 8751
  0610009B14Rik RNA-seq normalized coverage, AA CWHM12 individual replicates: 1407 and 899 and 1635
Kidney gene expression; RNA-seq
  0610005C13Rik AA CWHM12/AA Vehicle.RATIO: 2.041
  0610005C13Rik AA CWHM12/PBS Vehicle.RATIO: 0.462
  0610007N19Rik AA CWHM12/AA Vehicle.RATIO: 1.380
  0610007N19Rik AA CWHM12/PBS Vehicle.RATIO: 1.337
  0610007P14Rik AA CWHM12/AA Vehicle.RATIO: 1.629
  0610007P14Rik AA CWHM12/PBS Vehicle.RATIO: 1.142
  0610008F07Rik AA CWHM12/AA Vehicle.RATIO: 4.723
  0610008F07Rik AA CWHM12/PBS Vehicle.RATIO: 0.373
  0610009B14Rik AA CWHM12/AA Vehicle.RATIO: 1.572
  0610009B14Rik AA CWHM12/PBS Vehicle.RATIO: 1.915
Integrin α5β1
  IC50: 8 ± 3.9 nM
